How the values were obtained:
Experiment in all cases: Preservative/disinfectant system efficacy testing (log reduction)
Format in all cases: cell-based
[1] = tested on: Candida albicans (ATCC 10231)
Description: (§1) The ophthalmic compositions are evaluated in accordance with specific procedures outlined by the US Food & Drug Administration and the International Organization for Standardization for the testing of microbiocidal efficacy.

[2] = tested on: Fusarium solani (ATCC 36031)
Description: as §1

[3] = tested on: Pseudomonas aeruginosa (ATCC 9027)
Description: as §1

[4] = tested on: Serratia marcescens (ATCC 13880)
Description: as §1

[5] = tested on: Staphylococcus aureus (ATCC 6538)
Description: as §1

[6] = 1 hr, Table 5A multi-purpose lens care solution, 10% organic soil, disinfectant concentrations as in label
[7] = 1 hr, Table 8A multi-purpose lens care formulation, disinfectant concentrations as in label
[8] = 1 hr, phosphate buffered saline, 10% organic soil, concentrations as in label (Table 4)
[9] = 1 hr, phosphate buffered saline, concentrations as in label (Table 7)
[10] = 4 hr, Table 5A multi-purpose lens care solution, 10% organic soil, disinfectant concentrations as in label
[11] = 4 hr, Table 8A multi-purpose lens care formulation, disinfectant concentrations as in label
[12] = 4 hr, phosphate buffered saline, 10% organic soil, concentrations as in label (Table 4)
[13] = 4 hr, phosphate buffered saline, concentrations as in label (Table 7)

Row | SMILES | log reduction C. albicans [1, 7] | log reduction C. albicans [1, 9] | log reduction C. albicans [1, 11] | log reduction C. albicans [1, 13] | log reduction F. solani [2, 7] | log reduction F. solani [2, 9] | log reduction F. solani [2, 11] | log reduction F. solani [2, 13] | log reduction P. aeruginosa [3, 7] | log reduction P. aeruginosa [3, 9] | log reduction P. aeruginosa [3, 11] | log reduction P. aeruginosa [3, 13] | log reduction S. marcescens [4, 7] | log reduction S. marcescens [4, 9] | log reduction S. marcescens [4, 11] | log reduction S. marcescens [4, 13] | log reduction S. aureus [5, 7] | log reduction S. aureus [5, 9] | log reduction S. aureus [5, 11] | log reduction S. aureus [5, 13] | also measured
1 | CCCCC(CC)CNC(=N)NC(=N)NCCCCCCNC(=N)NC(=N)NCC(CC)CCCC (stereo not drawn) [alexidine, reference compound] | 2.0 | 3.2 | 3.0 | 3.8 | 3.1 | 2.3 | 4.2 | 2.3 | 3.5 | 1.6 | 3.9 | 2.3 | 4.1 | 2.0 | >5.2 | 3.5 | 3.3 | 1.4 | 3.8 | 1.4 | log reduction C. albicans [1, 6]: 2.0; log reduction C. albicans [1, 8]: 3.2; log reduction C. albicans [1, 10]: 3.0; log reduction C. albicans [1, 12]: 3.8; log reduction F. solani [2, 6]: 3.1; log reduction F. solani [2, 8]: 2.3; log reduction F. solani [2, 10]: 4.2; log reduction F. solani [2, 12]: 2.3; log reduction P. aeruginosa [3, 6]: 3.5; log reduction P. aeruginosa [3, 8]: 1.6; log reduction P. aeruginosa [3, 10]: 3.9; log reduction P. aeruginosa [3, 12]: 2.3; log reduction S. marcescens [4, 6]: 4.1; log reduction S. marcescens [4, 8]: 2.0; log reduction S. marcescens [4, 10]: >5.2; log reduction S. marcescens [4, 12]: 3.5; log reduction S. aureus [5, 6]: 3.3; log reduction S. aureus [5, 8]: 1.4; log reduction S. aureus [5, 10]: 3.8; log reduction S. aureus [5, 12]: 1.4
2 | CCCCC(CC)CNCC(O)CO (stereo not drawn) [EHAPD, 3-[(2-ethylhexyl)amino]-1,2-propanediol] | 2.4 | >5.0 | 2.6 | >5.0 | 2.4 | 2.3 | 4.8 | 5.2 | 1.2 | 1.4 | 1.3 | 1.4 | 2.7 | 3.3 | 3.2 | 3.8 | 1.2 | 1.4 | 1.2 | 1.4 | –
